Consider 19 compounds from patent US9777005B2 (Takeda Pharmaceutical Company Limited, priority 2012, dated 2017).

In the assay the target is T1, human M1 receptor (hCHRM1) (Homo sapiens, UniProt P11229).
T1 construct: expressed in transfected cells; host or cells: CHO-K1
T1 sequence (P11229 1-460): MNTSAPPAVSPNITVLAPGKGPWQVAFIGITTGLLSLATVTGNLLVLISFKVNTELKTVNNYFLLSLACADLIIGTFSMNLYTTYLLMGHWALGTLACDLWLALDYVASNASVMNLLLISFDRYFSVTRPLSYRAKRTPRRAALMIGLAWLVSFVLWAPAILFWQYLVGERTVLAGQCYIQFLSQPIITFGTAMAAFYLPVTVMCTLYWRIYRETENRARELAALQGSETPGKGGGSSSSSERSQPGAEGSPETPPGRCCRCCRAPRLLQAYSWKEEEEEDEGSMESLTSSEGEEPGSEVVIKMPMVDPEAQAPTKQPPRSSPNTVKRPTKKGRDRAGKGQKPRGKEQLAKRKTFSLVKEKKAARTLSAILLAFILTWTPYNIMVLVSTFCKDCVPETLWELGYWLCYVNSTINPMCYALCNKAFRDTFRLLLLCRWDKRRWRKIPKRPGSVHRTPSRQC
Briefly: Measurement of M1 receptor positive allosteric modulator (M1PAM) activity, calcium fluorescence (FLIPRtetra) in CHO-K1 cells in the presence of acetylcholine at EC20. It counts as cell-based. As to conditions: in the presence of acetylcholine at EC20 (final 0.6 nM), CHO-K1 cells expressing hCHRM1; for EC50: inflection point of M1PAM activity, read-out: IP value; for activity (%) at 10 μM: test compound 10 μM. The gist of the method: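 PAM activity was measured as calcium flux by FLIPRtetra over 1 min after co-addition of compound and EC20 acetylcholine (final 0.6 nM) to Fluo-4-loaded hCHRM1 CHO-K1 cells. The response was scaled between DMSO (0%) and 1 μM acetylcholine (100%), and the inflection point of the concentration curve gives the IP value.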

In the case of `O=C1c2c(ccnc2OCC2CCCO2)CN1Cc1ccc(-c2cn[nH]c2)cc1` (centres unmarked) [Example 286, 2-(4-(1H-pyrazol-4-yl)benzyl)-4-((tetrahydrofuran-2-yl)methoxy)-1,2-dihydro-3H-pyrrolo[3,4-c]pyridin-3-one], the EC50 came out at 0.013 µM and the “activity (%) at 10 μM” value was 99%.
On the same counts, the results for `Cn1cc(-c2ccc(CN3Cc4ccnc(Oc5ccc(Cl)cc5F)c4C3=O)cc2)cn1` [Example 388, 4-(4-chloro-2-fluorophenoxy)-2-(4-(1-methyl-1H-pyrazol-4-yl)benzyl)-1,2-dihydro-3H-pyrrolo[3,4-c]pyridin-3-one] are 0.03 µM and 102%.
The corresponding values for `O=C1c2c(ccc(F)c2O[C@H]2CCCC[C@@H]2O)CN1Cc1ccc(-n2cccn2)cc1` (relative stereo) [Example 228, 6-fluoro-7-((trans-2-hydroxycyclohexyl)oxy)-2-(4-(1H-pyrazol-1-yl)benzyl)isoindolin-1-one] are 0.094 µM and 118%.
On the same counts, the results for `O=C1c2c(cccc2O[C@@H]2CCOC[C@H]2O)CN1Cc1ccc(Cl)cc1` (single isomer, unassigned) [Example 292, 1,5-anhydro-3-O-(2-(4-chlorobenzyl)-3-oxo-2,3-dihydro-1H-isoindol-4-yl)-2-deoxy-threo-pentitol] are 0.048 µM and 101%.
As to `Cc1cc(-c2ccc(CN3Cc4ccnc(Oc5ccc(C(F)F)cc5F)c4C3=O)cc2)cnn1` [Example 392, 4-(4-(difluoromethyl)-2-fluorophenoxy)-2-(4-(6-methylpyridazin-4-yl)benzyl)-1,2-dihydro-3H-pyrrolo[3,4-c]pyridin-3-one], the EC50 came out at 0.016 µM and the “activity (%) at 10 μM” value was found to be 105%.
The corresponding values for `Cn1ccc(-c2ccc(CN3Cc4ncnc(Oc5ccc(C(F)F)cc5F)c4C3=O)cc2)n1` [Example 310, 4-(4-(difluoromethyl)-2-fluorophenoxy)-6-(4-(1-methyl-1H-pyrazol-3-yl)benzyl)-6,7-dihydro-5H-pyrrolo[3,4-d]pyrimidin-5-one] are 0.03 µM and 105%.
The corresponding values for `Cc1cc(-c2ccc(CN3Cc4ccnc(Oc5cc(CO)ccc5F)c4C3=O)cc2)ccn1` [Example 290, 4-(2-fluoro-5-(hydroxymethyl)phenoxy)-2-(4-(2-methylpyridin-4-yl)benzyl)-1,2-dihydro-3H-pyrrolo[3,4-c]pyridin-3-one] are 0.044 µM and 91%.
On the same counts, the results for `Cn1cc(-c2ccc(CN3Cc4ccnc(OCC5CC5)c4C3=O)cc2)nn1` [Example 337, 4-(cyclopropylmethoxy)-2-(4-(1-methyl-1H-1,2,3-triazol-4-yl)benzyl)-1,2-dihydro-3H-pyrrolo[3,4-c]pyridin-3-one] are 0.049 µM and 92%.
Turning to `Cn1ccc(-c2ccc(CN3Cc4ccnc(Oc5ccc(C(F)(F)F)cc5C#N)c4C3=O)cc2)n1` [Example 416, 2-((2-(4-(1-methyl-1H-pyrazol-3-yl)benzyl)-3-oxo-2,3-dihydro-1H-pyrrolo[3,4-c]pyridin-4-yl)oxy)-5-(trifluoromethyl)benzonitrile], the EC50 was 0.013 µM and the “activity (%) at 10 μM” value is listed as 98%.
The corresponding values for `Cc1cc(-c2ccc(CN3Cc4ccnc(O[C@@H]5CCC[C@H]5O)c4C3=O)cc2)ccn1` (single isomer, unassigned) [Example 243, 4-((trans-2-hydroxycyclopentyl)oxy)-2-(4-(2-methylpyridin-4-yl)benzyl)-1,2-dihydro-3H-pyrrolo[3,4-c]pyridin-3-one] are 0.037 µM and 104%.
As for `Cn1cc(-c2ccc(CN3Cc4cccc(OCCN5CCCCC5)c4C3=O)cc2)cn1` [Example 21, 2-(4-(1-methyl-1H-pyrazol-4-yl)benzyl)-7-(2-(piperidin-1-yl)ethoxy)isoindolin-1-one], the EC50 came out at 0.096 µM and the “activity (%) at 10 μM” value was 105%.
On the same counts, the results for `COCc1ccc(F)c(Oc2nccc3c2C(=O)N(Cc2ccc(-c4ccnc(C)c4)cc2)C3)c1` [Example 291, 4-(2-fluoro-5-(methoxymethyl)phenoxy)-2-(4-(2-methylpyridin-4-yl)benzyl)-1,2-dihydro-3H-pyrrolo[3,4-c]pyridin-3-one] are 0.034 µM and 91%.
As for `O=C1c2c(ccnc2OCC2CCCO2)CN1Cc1ccc(Br)cc1` (centres unmarked) [Example 284, 2-(4-bromobenzyl)-4-((tetrahydrofuran-2-yl)methoxy)-1,2-dihydro-3H-pyrrolo[3,4-c]pyridin-3-one], the EC50 is 0.34 µM and the “activity (%) at 10 μM” value amounted to 94%.
As for `Cn1ccc(-c2ccc(CN3Cc4ccnc(OCC5CCCO5)c4C3=O)cc2)n1` (single isomer, unassigned) [Example 245, 2-(4-(1-methyl-1H-pyrazol-3-yl)benzyl)-4-((tetrahydrofuran-2-yl)methoxy)-1,2-dihydro-3H-pyrrolo[3,4-c]pyridin-3-one], the EC50 is 0.057 µM and the “activity (%) at 10 μM” value is listed as 101%.
For `Cc1cc(C)c(Oc2nccc3c2C(=O)N(Cc2ccc(-c4cnn(C)c4)cc2)C3)c(F)c1` [Example 415, 4-(2-fluoro-4,6-dimethylphenoxy)-2-(4-(1-methyl-1H-pyrazol-4-yl)benzyl)-1,2-dihydro-3H-pyrrolo[3,4-c]pyridin-3-one], the EC50 worked out at 0.016 µM and the “activity (%) at 10 μM” value is on record as 106%.
The corresponding values for `Cc1ccc(Oc2nccc3c2C(=O)N(Cc2ccc(-c4ccn(C)n4)cc2)C3)c(F)c1` [Example 420, 4-(2-fluoro-4-methylphenoxy)-2-(4-(1-methyl-1H-pyrazol-3-yl)benzyl)-1,2-dihydro-3H-pyrrolo[3,4-c]pyridin-3-one] are 0.039 µM and 101%.
For `CNC(=O)c1ccc(CN2Cc3ccnc(Oc4ccc(C)cc4F)c3C2=O)cc1` [Example 433, 4-((4-(2-fluoro-4-methylphenoxy)-3-oxo-1,3-dihydro-2H-pyrrolo[3,4-c]pyridin-2-yl)methyl)-N-methylbenzamide], the EC50 came out at 0.01 µM and the “activity (%) at 10 μM” value amounted to 101%.
`N#Cc1cccc(F)c1Oc1cccc2c1C(=O)N(Cc1ccc(-n3cccn3)cc1)C2` [Example 66, 3-fluoro-2-((3-oxo-2-(4-(1H-pyrazol-1-yl)benzyl)-2,3-dihydro-1H-isoindol-4-yl)oxy)benzonitrile]: the EC50 came to 0.069 µM and the “activity (%) at 10 μM” value is listed as 101%.
The corresponding values for `Cn1cc(-c2ccc(CN3Cc4cccc(Oc5c(F)cc(N)cc5Cl)c4C3=O)cc2)cn1` [Example 11, 7-(4-amino-2-chloro-6-fluorophenoxy)-2-(4-(1-methyl-1H-pyrazol-4-yl)benzyl)isoindolin-1-one] are 0.065 µM and 102%.
